Test results as given in ChEMBL document CHEMBL1157738, “Simocyclinone D8 turns on against Gram-negative bacteria in a clinical setting” (2010).
Converted amounts (≈) assume the structure as drawn.

Key:
[1] = test system: Escherichia coli; assay: Antibacterial activity against Escherichia coli Top10 assessed as residual bacterial survival at 50 mg/L after 24 hrs by twofold serial dilution method; assay type: functional; details: Top10, 24 h
[2] = test system: Escherichia coli; assay: Antibacterial activity against Escherichia coli isolate 50 expressing qnr B19 gene assessed as residual bacterial survival at 50 mg/L after 24 hrs by twofold serial dilution method; assay type: functional; details: isolate 50, 24 h
[3] = test system: Escherichia coli; assay: Antibacterial activity against Escherichia coli isolate 50 assessed as drug uptake relative to total amount drug treated; assay type: functional, organism-based
[4] = test system: Klebsiella pneumoniae; assay: Antibacterial activity against Klebsiella pneumoniae isolate 16 expressing qnr B19 gene, GyrA D87G mutant assessed as residual bacterial survival at 50 mg/L after 24 hrs by twofold serial dilution method; assay type: functional; details: isolate 16, 24 h
[5] = test system: Escherichia coli; assay: Antibacterial activity against Escherichia coli isolate 13 assessed as residual bacterial survival at 50 mg/L after 24 hrs by twofold serial dilution method; assay type: functional; details: isolate 13, 24 h
[6] = test system: Escherichia coli; assay: Antibacterial activity against Escherichia coli isolate 41 assessed as residual bacterial survival at 50 mg/L after 24 hrs by twofold serial dilution method; assay type: functional; details: isolate 41, 24 h
[7] = test system: Klebsiella pneumoniae; assay: Antibacterial activity against Klebsiella pneumoniae isolate 92 assessed as residual bacterial survival at 50 mg/L after 24 hrs by twofold serial dilution method; assay type: functional; details: isolate 92, 24 h
[8] = test system: Escherichia coli; assay: Antibacterial activity against Escherichia coli isolate 115 expressing GyrA S83L mutant assessed as residual bacterial survival at 50 mg/L after 24 hrs by twofold serial dilution method; assay type: functional; details: isolate 115, 24 h
[9] = test system: Escherichia coli; assay: Antibacterial activity against Escherichia coli isolate 13 after 24 hrs by twofold serial dilution method; assay type: functional
[10] = test system: Klebsiella pneumoniae; assay: Antimicrobial activity against Klebsiella pneumoniae isolate 97 assessed drug uptake; assay type: functional, organism-based
[11] = test system: Klebsiella pneumoniae; assay: Antibacterial activity against Klebsiella pneumoniae isolate 97 assessed as drug uptake relative to total amount drug treated; assay type: functional, organism-based
[12] = test system: Klebsiella pneumoniae; assay: Antibacterial activity against Klebsiella pneumoniae isolate 134 assessed as residual bacterial survival at 50 mg/L after 24 hrs by twofold serial dilution method; assay type: functional; details: isolate 134, 24 h
[13] = test system: Escherichia coli; assay: Antibacterial activity against Escherichia coli Top10 assessed as drug uptake; assay type: functional, organism-based
[14] = test system: Klebsiella pneumoniae; assay: Antibacterial activity against Klebsiella pneumoniae isolate 97 expressing qnr B19 gene after 24 hrs by twofold serial dilution method; assay type: functional
[15] = test system: Escherichia coli; assay: Antibacterial activity against Escherichia coli isolate 191 expressing qnr S1 gene after 24 hrs by twofold serial dilution method; assay type: functional
[16] = test system: Klebsiella pneumoniae; assay: Antibacterial activity against Klebsiella pneumoniae isolate 91 after 24 hrs by twofold serial dilution method; assay type: functional
[17] = test system: Escherichia coli; assay: Antibacterial activity against Escherichia coli isolate 24 assessed as drug uptake relative to total amount drug treated; assay type: functional, organism-based
[18] = test system: Escherichia coli; assay: Antibacterial activity against Escherichia coli isolate 7 after 24 hrs by twofold serial dilution method; assay type: functional
[19] = test system: Escherichia coli; assay: Antibacterial activity against Escherichia coli isolate 32 after 24 hrs by twofold serial dilution method; assay type: functional
[20] = test system: Escherichia coli; assay: Antibacterial activity against Escherichia coli isolate 24 after 24 hrs by twofold serial dilution method; assay type: functional
[21] = test system: Klebsiella pneumoniae; assay: Antibacterial activity against Klebsiella pneumoniae isolate 110 expressing qnr B19 gene, GyrA D87G mutant assessed as residual bacterial survival at 50 mg/L after 24 hrs by twofold serial dilution method; assay type: functional; details: isolate 110, 24 h
[22] = test system: Escherichia coli; assay: Antibacterial activity against Escherichia coli isolate 41 after 24 hrs by twofold serial dilution method; assay type: functional
[23] = test system: Escherichia coli; assay: Antibacterial activity against Escherichia coli XL-1Blue assessed as residual bacterial survival at 50 mg/L after 24 hrs by twofold serial dilution method; assay type: functional
[24] = test system: Escherichia coli; assay: Antibacterial activity against Escherichia coli JM110 assessed as residual bacterial survival at 50 mg/L after 24 hrs by twofold serial dilution method; assay type: functional; details: JM110, 24 h
[25] = test system: Escherichia coli; assay: Antibacterial activity against Escherichia coli JM109 assessed as residual bacterial survival at 50 mg/L after 24 hrs by twofold serial dilution method; assay type: functional; details: JM109, JM 109, 24 h
[26] = test system: Escherichia coli; assay: Antibacterial activity against Escherichia coli isolate 24 assessed as drug uptake; assay type: functional, organism-based
[27] = test system: Escherichia coli; assay: Antibacterial activity against Escherichia coli isolate 21 after 24 hrs by twofold serial dilution method; assay type: functional
[28] = test system: Klebsiella pneumoniae; assay: Antibacterial activity against Klebsiella pneumoniae isolate 328 expressing qnr B19 gene, GyrA D87G mutant assessed as residual bacterial survival at 50 mg/L after 24 hrs by twofold serial dilution method; assay type: functional; details: isolate 328, 24 h
[29] = test system: Klebsiella pneumoniae; assay: Antibacterial activity against Klebsiella pneumoniae isolate 370 expressing qnr B19 gene, GyrA D87G mutant assessed as residual bacterial survival at 50 mg/L after 24 hrs by twofold serial dilution method; assay type: functional; details: isolate 370, 24 h
[30] = test system: Escherichia coli; assay: Antibacterial activity against Escherichia coli Top10 assessed as drug uptake relative to total amount drug treated; assay type: functional, organism-based
[31] = test system: Escherichia coli; assay: Antibacterial activity against Escherichia coli isolate 7 assessed as residual bacterial survival at 50 mg/L after 24 hrs by twofold serial dilution method; assay type: functional; details: isolate 7, 24 h

`CC(=O)O[C@@H]1[C@@H](C)O[C@@H](c2ccc3c(c2O)[C@@H](O)[C@]24O[C@@]2(C3=O)[C@@]2(O)C(=O)C=C(C)C[C@@]2(O)C[C@@H]4O)C[C@H]1OC(=O)/C=C/C=C/C=C/C=C/C(=O)Nc1c(O)c2ccc(O)c(Cl)c2oc1=O` [SIMOCYCLINONE D8] was tested, and the survival at 50 µg/mL [1] was over 90%, the survival at 50 µg/mL [2] was 41% and the Drug uptake [3] was 5.87%. The survival at 50 µg/mL [4] was over 90%, the survival at 50 µg/mL [5] was over 90% and the survival at 50 µg/mL [6] was 9%. It also gave a survival at 50 µg/mL [7] of 77%, a survival at 50 µg/mL [8] of over 90% and an MIC50 [9] of over 100 µg/mL. For the same molecule, the Drug uptake [10] was 40 pmol, the Drug uptake [11] was 1.3% and the survival at 50 µg/mL [12] was 51%. It also gave a Drug uptake [13] of 80 pmol, an MIC50 [14] of 50 µg/mL (≈ 53.6 µM) and an MIC50 [15] of 25 µg/mL (≈ 26.8 µM). The MIC50 [16] was over 100 µg/mL, the Drug uptake [17] was 7.53% and the MIC50 [18] was over 100%. For the same molecule, the MIC50 [19] was over 100 µg/mL, the MIC50 [20] was 3.12 µg/mL (≈ 3.35 µM) and the survival at 50 µg/mL [21] was over 90%. For the same molecule, the MIC50 [22] was 0.78 µg/mL (≈ 0.837 µM), the survival at 50 µg/mL [23] was over 90% and the survival at 50 µg/mL [24] was over 90%. The survival at 50 µg/mL [25] was over 90%, the Drug uptake [26] was 260 pmol and the MIC50 [27] was over 100 µg/mL. It also gave a survival at 50 µg/mL [28] of over 90%, a survival at 50 µg/mL [29] of over 90% and a Drug uptake [30] of 2.61%. For the same molecule, the survival at 50 µg/mL [31] was over 90%.
